Assay results as given in patent US20040082665A1, “Method for treating stress or tension” (priority 2001, published 2004).

Columns and labels:
[1] = tested on: patients; assay: Randomised placebo-controlled double-blind study; ability to tolerate stress by Visual Analogue Scale (VAS); format: in vivo; conditions: tablet
Description: The effects of deramciclane were studied in a randomised placebo-controlled double-blind study. The subjects were randomly assigned to four parallel groups to receive one tablet twice daily (b.i.d) of a placebo, 5 mg (=10 mg/day), 15 mg (=30 mg/day), or 30 mg (=60 mg/day) deramciclane.
The efficacy of deramciclane on the ability to tolerate stress was analysed by the Visual Analogue Scale (VAS).

[2] = tested on: patients; assay: Randomised placebo-controlled double-blind parallel group 8-week study of tension; format: in vivo; conditions: after 8 weeks of treatment; for patients with tension scale number at least 4: placebo 48% at baseline, 12% after 8 weeks; for patients with moderate/severe or very severe other tension: present in all patients at baseline, placebo 43%; for patients with moderate/severe or very severe muscular tension: placebo 82% at baseline, 38% after 8 weeks
Source text: The efficacy and safety of deramciclane was studied in the treatment of tension as compared to placebo. A randomised plasebo-controlled double-blind parallel group 8-week study design was used.
Patients were asked if they had muscular tension (twitchings, stiffness, myoclonic jerks, grinding of teeth, unsteady voice or increased muscular tone) or other tension (feelings of tension, fatigability, startle response, moving to tears easily, trembling, feelings of restlessness or inability to relax). This tension was related to be not present, mild, moderate, severe or very severe.
In addition, patients' tension was also rated with the tension scale 1-6:
2—occasional feelings of edginess and ill defined discomfort
4—continuous feelings of inner tension
6—unrelated dread or anguish

CN(C)CCO[C@]1(c2ccccc2)C[C@H]2CC[C@]1(C)C2(C)C [deramciclane, (1R,2S,4R)-(−)-2-phenyl 2-(dimethylaminoethoxy)-1,7,7-trimethyl-bicyclo[2.2.1]heptane]
ability to tolerate stress better than in patients receiving placebo (VAS) ([1]; deramciclane 5 mg b.i.d (=10 mg/day)): 29%
ability to tolerate stress better than in patients receiving placebo (VAS) ([1]; deramciclane 15 mg b.i.d (=30 mg/day)): 54%
ability to tolerate stress better than in patients receiving placebo (VAS) ([1]; deramciclane 30 mg b.i.d. (=60 mg/day)): 43%
patients with tension scale number at least 4 ([2]; 15 mg bid deramciclane, baseline 35%): 5%
patients with moderate/severe or very severe other tension ([2]; 15 mg bid deramciclane): 25%
patients with moderate/severe or very severe muscular tension ([2]; 15 mg deramciclane bid, baseline 61%): 18%
patients with tension scale number at least 4 ([2]; 30 mg bid deramciclane, baseline 47%): 11%
patients with moderate/severe or very severe other tension ([2]; 30 mg bid deramciclane): 24%
patients with moderate/severe or very severe muscular tension ([2]; baseline 68%): 15%
